Assay results published in ChEMBL document CHEMBL5357027, “Annonaceous Acetogenins Synergistically Inhibit Hepatocellular Carcinoma with Sorafenib” (J Nat Prod, 2024).
Active and inactive are the calls of the source. The rule behind the calls is not given here.

Columns and labels:
HepG2 [1] = assay: Cytotoxicity against human HepG2 cells assessed as cell growth inhibition incubated for 48 hrs by MTT assay; type: functional, cell-based; details: HepG2, 48 h
Huh-7 [2] = assay: Cytotoxicity against human Huh-7 cells assessed as cell growth inhibition incubated for 48 hrs by MTT assay; type: functional, cell-based; details: Huh-7, 48 h
MHCC97H [3] = assay: Cytotoxicity against human MHCC97H cells assessed as cell growth inhibition incubated for 48 hrs by MTT assay; type: functional, cell-based
HCCLM3 [4] = assay: Cytotoxicity against human HCCLM3 cells assessed as cell growth inhibition incubated for 48 hrs by MTT assay; type: functional, cell-based; details: HCCLM3, 48 h
HCCLM3 [5] = assay: Inhibition of mitochondrial respiratory chain complex I in human HCCLM3 incubated for 24 hrs; type: cell-based
HepG2 [6] = assay: Synergistic cytotoxicity against human HepG2 cells assessed as cell growth inhibition by measuring synergy score at 1 to 16 uM incubated for 48 hrs in presence of sorafenib at 1 to 16 uM by MTT assay; type: functional; details: dose 1-16 µM
Huh-7 [7] = assay: Synergistic cytotoxicity against human Huh-7 cells assessed as cell growth inhibition by measuring synergy score at 1 to 16 uM incubated for 48 hrs in presence of sorafenib at 1 to 16 uM by MTT assay; type: functional; details: dose 1-16 µM
MHCC97H [8] = assay: Synergistic cytotoxicity against human MHCC97H cells assessed as cell growth inhibition by measuring synergy score at 1 to 16 uM incubated for 48 hrs in presence of sorafenib at 1 to 16 uM by MTT assay; type: functional; details: dose 1-16 µM
HCCLM3 [9] = assay: Synergistic cytotoxicity against human HCCLM3 cells assessed as cell growth inhibition by measuring synergy score at 1 to 16 uM incubated for 48 hrs in presence of sorafenib at 1 to 16 uM by MTT assay; type: functional; details: dose 1-16 µM
HepG2 [10] = assay: Synergistic inhibition of mitochondrial function in human HepG2 cells assessed as reduction in intracellular ATP level at 8 uM incubated for 48 hrs in presence of 16 uM sorafenib; type: functional, cell-based
Huh-7 [11] = assay: Synergistic inhibition of mitochondrial function in human Huh-7 cells assessed as reduction in intracellular ATP level at 8 uM incubated for 48 hrs in presence of 16 uM sorafenib; type: functional, cell-based
MHCC97H [12] = assay: Synergistic inhibition of mitochondrial function in human MHCC97H cells assessed as reduction in intracellular ATP level at 8 uM incubated for 48 hrs in presence of 16 uM sorafenib; type: functional, cell-based
HCCLM3 [13] = assay: Synergistic inhibition of mitochondrial function in human HCCLM3 cells assessed as reduction in intracellular ATP level at 8 uM incubated for 48 hrs in presence of 16 uM sorafenib; type: functional, cell-based
HCCLM3 [14] = assay: Induction of apoptosis in human HCCLM3 cells assessed as necrotic cells at 4 uM incubated for 48 hrs by Annexin V/FITC-PI staining based flow cytometry (reference value: 3.33%); type: functional
HCCLM3 [15] = assay: Induction of apoptosis in human HCCLM3 cells assessed as late apoptotic cells at 4 uM incubated for 48 hrs by Annexin V/FITC-PI staining based flow cytometry (reference value: 0.07%); type: functional
HCCLM3 [16] = assay: Induction of apoptosis in human HCCLM3 cells assessed as early apoptotic cells at 4 uM incubated for 48 hrs by Annexin V/FITC-PI staining based flow cytometry (reference value: 0.05%); type: functional
HCCLM3 [17] = assay: Induction of apoptosis in human HCCLM3 cells assessed as viable cells at 4 uM incubated for 48 hrs by Annexin V/FITC-PI staining based flow cytometry (reference value: 96.55%); type: functional; details: read-out: Activity
HCCLM3 [18] = assay: Induction of apoptosis in human HCCLM3 cells assessed as viable cells at 4 uM incubated for 48 hrs in presence of 4uM sorafenib by Annexin V/FITC-PI staining based flow cytometry (reference value: 96.55%); type: functional; details: read-out: Activity
HCCLM3 [19] = assay: Induction of apoptosis in human HCCLM3 cells assessed as early apoptotic cells at 4 uM incubated for 48 hrs in presence of 4uM sorafenib by Annexin V/FITC-PI staining based flow cytometry (reference value: 0.05%); type: functional
HCCLM3 [20] = assay: Induction of apoptosis in human HCCLM3 cells assessed as late apoptotic cells at 4 uM incubated for 48 hrs in presence of 4uM sorafenib by Annexin V/FITC-PI staining based flow cytometry (reference value: 0.07%); type: functional
HCCLM3 [21] = assay: Induction of apoptosis in human HCCLM3 cells assessed as necrotic cells at 4 uM incubated for 48 hrs in presence of 4uM sorafenib by Annexin V/FITC-PI staining based flow cytometry (reference value: 3.33%); type: functional
HCCLM3 [22] = assay: Induction of apoptosis in human HCCLM3 cells assessed as apoptotic ratio at 4 uM incubated for 48 hrs in presence of 4uM sorafenib by Annexin V/FITC-PI staining based flow cytometry relative to control; type: functional
HepG2 [23] = assay: Inhibition of mitochondrial function in human HepG2 cells assessed as reduction in ATP production at 8 uM incubated for 48 hrs; type: functional, cell-based
Huh-7 [24] = assay: Inhibition of mitochondrial function in human Huh-7 cells assessed as reduction in ATP production at 8 uM incubated for 48 hrs; type: functional, cell-based
MHCC97H [25] = assay: Inhibition of mitochondrial function in human MHCC97H cells assessed as reduction in ATP production at 8 uM incubated for 48 hrs; type: functional, cell-based
HCCLM3 [26] = assay: Inhibition of mitochondrial function in human HCCLM3 cells assessed as reduction in ATP production at 8 uM incubated for 48 hrs; type: functional, cell-based

## CCCCCCCCCCCC[C@H](O)[C@@H]1CC[C@H]([C@H](O)CCCC[C@@H](O)CCCCC[C@@H](O)CC2=C[C@H](C)OC2=O)O1
HepG2 [1]
  IC50: 7.1 µM
Huh-7 [2]
  IC50: 7.1 µM
MHCC97H [3]
  IC50: 7.1 µM
HCCLM3 [4]
  IC50: 7.1 µM
HCCLM3 [5]
  inhibition: Active
HepG2 [6]
  Activity: 2.3
Huh-7 [7]
  Activity: 2.3
MHCC97H [8]
  Activity: 2.3
HCCLM3 [9]
  Activity: 2.3

## CCCCCCCCCCCC[C@@H](O)[C@H]1CC[C@H]([C@H](O)CCCC(O)CCCCCC[C@@H](O)CC2=C[C@H](C)OC2=O)O1 (stereo partly drawn)
HepG2 [1]
  IC50: 10 µM
Huh-7 [2]
  IC50: 10 µM
MHCC97H [3]
  IC50: 10 µM
HCCLM3 [4]
  IC50: 10 µM
HCCLM3 [5]
  inhibition: Active
HepG2 [6]
  Activity: 2
Huh-7 [7]
  Activity: 2
MHCC97H [8]
  Activity: 2
HCCLM3 [9]
  Activity: 2

## CCCCCCCCCCCC[C@H](O)[C@@H]1CC[C@H]([C@H](O)CCCCC(=O)CCCCC[C@@H](O)CC2=C[C@H](C)OC2=O)O1
HepG2 [1]
  IC50: 15 µM
Huh-7 [2]
  IC50: 15 µM
MHCC97H [3]
  IC50: 15 µM
HCCLM3 [4]
  IC50: 15 µM
HCCLM3 [5]
  inhibition: Active
HepG2 [6]
  Activity: 0.7
Huh-7 [7]
  Activity: 0.7
MHCC97H [8]
  Activity: 0.7
HCCLM3 [9]
  Activity: 0.7

## CCCCCCCCCC[C@H](O)[C@@H](O)C[C@H](O)[C@@H]1CC[C@@H](CCCCCCCCCC[C@@H](O)CC2=C[C@H](C)OC2=O)O1
HepG2 [1]
  IC50: > 50 µM
Huh-7 [2]
  IC50: > 50 µM
MHCC97H [3]
  IC50: > 50 µM
HCCLM3 [4]
  IC50: > 50 µM
HCCLM3 [5]
  inhibition: Active
HepG2 [10]
  inhibition: Active
Huh-7 [11]
  inhibition: Active
MHCC97H [12]
  inhibition: Active
HCCLM3 [13]
  Activity: Active
HCCLM3 [14]
  Activity: 1.36%
HCCLM3 [15]
  Activity: 0.17%
HCCLM3 [16]
  Activity: 1.27%
HCCLM3 [17]
  viability at 4 µM: 97.2%
HCCLM3 [18]
  viability at 4 µM: 80.5%
HCCLM3 [19]
  Activity: 8.66%
HCCLM3 [20]
  Activity: 6.45%
HCCLM3 [21]
  Activity: 4.44%
HCCLM3 [22]
  Activity: 11.6%
HepG2 [23]
  inhibition: Active
Huh-7 [24]
  inhibition: Active
MHCC97H [25]
  inhibition: Active
HCCLM3 [26]
  inhibition: Active
HepG2 [6]
  Activity: 3.7
Huh-7 [7]
  Activity: 7.1
MHCC97H [8]
  Activity: 17
HCCLM3 [9]
  Activity: 13.9
